{"source": "paper PMC10865860", "about": "(mBio, 2023)", "system": "SARS-CoV-2 Omicron subvariant XBB.1.16", "parameters": "species or system K18-hACE2 mice", "settings": "mouse, in vivo", "data": [{"smiles": "COc1ccccc1C1CC1COC(=O)NC(CC(C)C)C(=O)NC(CC1CCNC1=O)C(O)S(=O)(=O)O", "note": "(stereo not shown) [11d]", "values": [{"measurement": "body weight loss compared to vehicle", "value": "reduced weight losses"}, {"measurement": "lung edema average score", "value": "< 0.5"}, {"measurement": "viral titers in nasal wash, nasal turbinate, and lungs compared to vehicle", "value": "significantly lower"}, {"measurement": "fatality by 14 days after virus infection", "setting": "ip", "value": 20, "unit": "%"}]}]}
